Columns and labels:
[1] = tested on: double molecular type N29+N31 biosensor (6×His LBD(121-427 aa)-SmBiT + 6×His LgBiT-NHPMLMNLLKDN)
Experimental: Several of the obtained E.coli colony were selected, inoculated into 2 mL of LB liquid culture medium (containing 100 µg/mL of ampicillin), and shaking culture was performed at 37°C and 200 rpm for 12 hours. 2 mL of E.coli solution was succeeded in 500 mL of LB liquid culture medium (containing 100 µg/mL of ampicillin) and cultivated at 37°C to OD600=0.4, and then 1 mM isopropyl-1-thio-β-D-galactopyranoside [IPTG (NACALAI TESQUE, INC.) was added and cultivated at 15°C for 3 hours to express proteins. After cultivation, centrifugal separation was performed at 4°C, 5000×g for 10 minutes to collect bacterial cells. Bacterial bodies were suspended in the solution containing 25 mM Tris-HCl, pH 7.4, 10 mM DTT, and protease cocktails of inhibitor (NACALAI TESQUE, Inc.) and then ultrasonic crushing was performed in ice for 15 sec×7 times. Thereafter, centrifugal separation was performed at 4°C, 20,000×g for 30 minutes, and supernatant was collected to obtain biosensor protein solutions N29, N30, N31 and N32.
Thereafter, 10 µl of light emission substrate solution (Nano-Glo Live Cell Assay System, Promega) was added and measured. Ethanol (EtOH) brought in, which is used as a solvent for VDR ligand, was at a final concentration of 1%. Microplate reader Infinite 200 Pro (TECAN) was used as an instrument for measuring light emission.
After plating double molecular type N29+N31 to 96 well plate, 0-50 nM of 25(OH)D3 was added and incubated for 10 minutes at room temperature.
After plating double molecular type N29+N31 to 96 well plate, 0-10 nM of 25(OH)D3 was added and incubated for 10 minutes at room temperature.
After plating double molecular type N29+N31 to 96 well plate, 0-10000 nM calcitroic acid was added and incubated for 10 minutes at room temperature.

[2] = target: T1, LucN-NHPMLMNLLKDN-(GGGGS)×3-LBD-LucC biosensor (split firefly luciferase, LXXLL sequence, hVDR LBD 121-427 aa) (Homo sapiens, UniProt P11473); test: Luciferase light emission in COS-7 cells expressing single molecular type biosensor; type: cell-based; details: 0-1000 nM added, relative light intensity after 90 minutes
T1 construct: expressed in transfected cells; host or cells: COS-7
T1 sequence (P11473 121-427): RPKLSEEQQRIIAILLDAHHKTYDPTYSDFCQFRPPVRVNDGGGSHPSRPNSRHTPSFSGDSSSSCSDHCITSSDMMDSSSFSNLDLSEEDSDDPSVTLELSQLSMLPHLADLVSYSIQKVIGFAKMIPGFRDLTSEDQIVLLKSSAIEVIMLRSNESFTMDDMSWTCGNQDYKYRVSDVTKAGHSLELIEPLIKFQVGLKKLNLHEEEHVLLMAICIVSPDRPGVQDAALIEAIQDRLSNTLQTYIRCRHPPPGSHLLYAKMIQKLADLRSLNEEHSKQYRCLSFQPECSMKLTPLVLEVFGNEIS

| Compound | Detection limit ([1]; 0-10 nM 25(OH)D3, 10 minutes after light emission substrate solution, in vitro) | concentration reaching maximal increase of light emission ([1]; 0-50 nM 25(OH)D3, in vitro) | relative change of light emission ([1]; nanoluciferase biosensor protein, 10 min, 1 pM) | concentration reaching maximal light emission [2] | concentration required for increasing light emission ([1]; 0-10000 nM calcitroic acid, 10 minutes after light emission substrate solution, in vitro) | VDR affinity relative to 1α,25(OH)2D3 ([1]; stated with the N29+N31 biosensor evaluation) |
| --- | --- | --- | --- | --- | --- | --- |
| C=C1CC[C@H](O)C/C1=C/C=C1\CCC[C@]2(C)[C@@H]([C@H](C)CCCC(C)(C)O)CC[C@@H]12 [25(OH)D3, 25 hydroxyvitamin D3] | 1 pM | around 50 nM | about 1.5 fold | 1000 nM |  |  |
| C=C1/C(=C\C=C2/CCC[C@]3(C)[C@@H]([C@H](C)CC(=O)O)CC[C@@H]23)C[C@@H](O)C[C@@H]1O [calcitroic acid] |  |  |  |  | ≥ 10 nM | 1/1000 |
